Data from ChEMBL document CHEMBL6120963, “Discovery of Novel PROTAC SIRT6 Degraders with Potent Efficacy against Hepatocellular Carcinoma” (J Med Chem, 2024).
Calls of active or inactive are those of the source. No cut-off for these calls is given here.

How the values were obtained:
[1] = system: SK-HEP1; assay: Inhibition of cell proliferation of human SK-HEP1 cells xenografted in BALB/c nude mouse at 10 mg/kg treated for 28 to 30 days under irradiation (3 Gy); assay type: functional, organism-based; details: time 28-30 day
[2] = molecular target: T1, Protein cereblon/NAD-dependent protein deacylase sirtuin-6 (Homo sapiens, UniProt Q8N6T7+Q96SW2); assay: PROTAC activity at CRBN/SIRT6 in human U2OS cells expressing EJ5 assessed as inhibition of SNF2H loading onto chromatin incubated for 36 hrs by FACS analysis; assay type: cell-based
T1 sequence (Q8N6T7 2-355 limits assumed): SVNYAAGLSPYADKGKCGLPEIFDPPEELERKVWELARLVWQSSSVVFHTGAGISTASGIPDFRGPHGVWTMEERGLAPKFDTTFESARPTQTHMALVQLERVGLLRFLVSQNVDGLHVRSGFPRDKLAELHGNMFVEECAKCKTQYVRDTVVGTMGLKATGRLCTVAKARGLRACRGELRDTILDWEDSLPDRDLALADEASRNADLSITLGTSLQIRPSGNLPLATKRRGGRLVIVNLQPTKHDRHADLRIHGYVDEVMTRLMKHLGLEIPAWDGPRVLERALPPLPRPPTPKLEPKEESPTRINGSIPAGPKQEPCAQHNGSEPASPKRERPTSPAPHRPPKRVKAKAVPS
T1 sequence (Q96SW2 whole entry partner): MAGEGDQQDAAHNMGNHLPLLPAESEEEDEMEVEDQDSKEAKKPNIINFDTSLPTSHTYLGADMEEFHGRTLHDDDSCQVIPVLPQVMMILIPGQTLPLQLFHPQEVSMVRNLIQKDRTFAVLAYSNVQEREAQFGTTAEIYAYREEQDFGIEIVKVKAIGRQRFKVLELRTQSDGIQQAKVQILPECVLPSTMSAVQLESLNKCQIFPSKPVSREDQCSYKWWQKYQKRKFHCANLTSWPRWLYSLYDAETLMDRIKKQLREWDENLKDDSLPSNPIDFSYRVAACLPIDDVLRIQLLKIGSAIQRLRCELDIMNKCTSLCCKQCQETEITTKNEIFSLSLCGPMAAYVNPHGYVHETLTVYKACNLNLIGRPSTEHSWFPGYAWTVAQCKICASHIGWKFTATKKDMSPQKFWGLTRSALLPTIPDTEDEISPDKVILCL

[3] = molecular target: T1, Protein cereblon/NAD-dependent protein deacylase sirtuin-6; assay: PROTAC activity at CRBN/SIRT6 in human SK-HEP1 cells assessed as induction of SIRT6 degradation at 0.02 to 5 uM incubated for 36 hrs by Western blot analysis; assay type: cell-based; details: dose 0.02-5 µM
[4] = Toxicity in BALB/c nude mouse xenografted with human SK-HEP1 cells assessed as histopathological abnormalities in heart at 10 mg/kg treated for 28 to 30 days in presence of sorafenib by H and E staining based analysis; assay type: organism-based; details: in vivo, time 28-30 day
[5] = system: Huh-7; assay: Inhibition of colony formation in human Huh-7 cells at 5 to 10 uM incubated for 10 to 14 days with replacement of medium containing compounds on every 3 days by crystal violet staining based analysis; assay type: functional, cell-based; details: dose 5-10 µM, time 10-14 day
[6] = system: SK-HEP1; assay: Effect of CDK15 mRNA expression in human SK-HEP1 cells at 2.5 uM incubated for 36 hrs by RNA sequencing analysis; assay type: functional, cell-based
[7] = Toxicity in BALB/c nude mouse xenografted with human SK-HEP1 cells assessed as pathological damage in kidney at 10 mg/kg treated for 28 to 30 days in presence of sorafenib by H and E staining based analysis; assay type: organism-based; details: in vivo, time 28-30 day
[8] = system: Huh-7; assay: Effect on SIRT7 expression in human Huh-7 cells at 0.002 to 1 uM incubated for 36 hrs by Western blot analysis; assay type: functional, cell-based; details: dose 0.002-1 µM
[9] = molecular target: T1, Protein cereblon/NAD-dependent protein deacylase sirtuin-6; assay: PROTAC activity at CRBN/SIRT6 in human SK-HEP1 cells assessed as induction of SIRT6 degradation upto 10 uM incubated for 36 hrs by Western blot analysis relative to control; assay type: cell-based
[10] = system: SK-HEP1; assay: Induction of apoptosis in human SK-HEP1 cells at 2.5 uM preincubated for 36 hrs followed by irradiation (3 Gy) by Annexin V-FITC/PI staining based flow cytometry; assay type: functional, cell-based
[11] = system: SK-HEP1; assay: Effect of SIRT2 mRNA expression in human SK-HEP1 cells at 2.5 uM incubated for 36 hrs by RT-qPCR analysis; assay type: functional, cell-based
[12] = system: SK-HEP1; assay: Effect on H3K18Ac expression in human SK-HEP1 cells at 0.002 to 1 uM incubated for 36 hrs by Western blot analysis; assay type: functional, cell-based; details: dose 0.002-1 µM
[13] = Toxicity in BALB/c nude mouse xenografted with human SK-HEP1 cells assessed as pathological damage in kidney at 10 mg/kg treated for 28 to 30 days under irradiation (3 Gy) by H and E staining based analysis; assay type: organism-based; details: in vivo, time 28-30 day
[14] = Toxicity in BALB/c nude mouse xenografted with human SK-HEP1 cells assessed as pathological damage in heart at 10 mg/kg treated for 28 to 30 days by H and E staining based analysis; assay type: organism-based; details: in vivo, time 28-30 day
[15] = system: Huh-7; assay: Effect on SIRT1 expression in human Huh-7 cells at 0.002 to 1 uM incubated for 36 hrs by Western blot analysis; assay type: functional, cell-based; details: dose 0.002-1 µM

For `Nc1cc(N2CCN(CC3CCN(c4cc5c(cc4F)C(=O)N(C4CCC(=O)NC4=O)C5=O)CC3)CC2)ccc1[N+](=O)[O-]` (stereo not given), which inhibition [1] is on record?
The inhibition was “Active”.

And the inhibition [2]?
Its inhibition is “Active; Results In Decrease In Hr And Nhej Efficiencies”.

What about the Activity [3] of the same molecule?
The Activity was “Active”.

What about the Activity [4] of the same molecule?
The Activity was “Non-toxic”.

What about the inhibition [5] of the same molecule?
The inhibition was “Active”.

What about the Activity [6] of the same molecule?
Its Activity is “Active”.

What about the Activity [7] of the same molecule?
The Activity was “Non-toxic”.

What about the Activity [8] of the same molecule?
The Activity was “No effect”.

What about the Emax [9] of the same molecule?
The Emax was greater than 98%.

And the Activity [10]?
Its Activity is “Active; Significant Effect Was Observed Before Being Exposed To Ir”.

What about the Activity [11] of the same molecule?
The Activity was “No effect”.

And the Activity [12]?
The Activity was “No effect”.

And the Activity [13]?
Its Activity is “Non-toxic”.

What about the Activity [14] of the same molecule?
Its Activity is “Non-toxic”.

And the Activity [15]?
The Activity was “No effect”.
